Where two headings read alike, the source gives them in different places.

One series addresses T1, gastrin receptor (CCKB) (Rattus norvegicus, UniProt P30553).
T1 construct: from tissue; host or cells: stomach of live anesthetized pylorus-ligated rats (in vivo)
T1 sequence (P30553 1-452): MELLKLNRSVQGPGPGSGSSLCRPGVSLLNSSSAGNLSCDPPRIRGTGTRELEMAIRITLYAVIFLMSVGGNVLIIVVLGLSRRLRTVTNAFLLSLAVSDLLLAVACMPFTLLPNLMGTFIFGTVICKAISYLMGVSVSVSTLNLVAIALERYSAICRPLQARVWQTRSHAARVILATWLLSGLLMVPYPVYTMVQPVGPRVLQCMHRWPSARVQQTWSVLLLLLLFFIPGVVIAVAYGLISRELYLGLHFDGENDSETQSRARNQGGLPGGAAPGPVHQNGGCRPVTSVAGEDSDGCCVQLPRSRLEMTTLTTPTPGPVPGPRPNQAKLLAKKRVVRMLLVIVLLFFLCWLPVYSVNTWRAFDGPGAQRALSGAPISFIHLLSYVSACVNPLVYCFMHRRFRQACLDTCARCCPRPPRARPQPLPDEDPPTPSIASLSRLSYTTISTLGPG
The experiment in a line: Effect of CCKB antagonist on PG-mediated gastric acid secretion in pylorus-ligated rats. Format: in vivo. The procedure:
As PG is a gastrin hormone homologue, its local effect is thought to be mediated via gastrin pathway, i.e. an activation of gastrin receptor (CCKB). To test this hypothesis the effect of the specific CCKB antagonist (Itriglumide) on PG-mediated acid secretion in rats was examined.
In this study, rats were anesthetized with Ketamine and Domitor mixture and provided with 20 mg/kg of Itriglumide that was administered intraduodenally (i.d.). Following 15 min, gastric pylorus was ligated and 300 μg/kg PG was administered into the stomach (i.g.). After 30 min, gastric juice was obtained, centrifuged and the volume and pH of the supernatants were measured. The acid concentration (titratable acidity) was analyzed by titration the gastric juice samples with NaOH and total acid output expressed in […] HCl was calculated by multiplying the sample volume by the acid concentration.

For series [1] the following is noted: for radioactivity in systemic circulation: oral dose 50×10^6 CPM; for Radioactivity in systemic circulation % of Total Radioactivity/Dose: 50 μg/kg. The procedure: The bioavailability of PG in rats following oral administration of ^3H-labeled PG was studied. Male Wister Hanover rats were anaesthetized and catheters were positioned in the jugular vein for blood sampling. Rats were treated orally with ^3H-PG at a dose of 50 μg/kg (50×10^6 CPM per dose) and blood samples were drawn at 5, 15 and 30 minutes. The radioactivity in blood samples at each time point was determined by a β-counter.

Another series deals with gastric acid secretion. Kind of series: Gastric pH and acid output after tetragastrin s.c. or per os in pylorus-ligated rats. Type of series: in vivo, Wister rats. Particulars: for acid secretion: 30 min, titration with NaOH to pH 7; for gastric pH: gastric juice collected 30 min after treatment. As for the experimental part: The effect of tetragastrin (Trp-Met-Asp-PheNH2) administered orally in stimulating gastric acid secretion was examined. […] Tetragastrin was administered either s.c. (25 μg/kg) or per os (206 μg/kg) and gastric juice was collected 30 min following treatment. Acid concentration was measured by titration the samples with NaOH to pH=7. Results are expressed as means±SEM of 3-4 animals.

For `Cc1cc(C)c(NC(=O)C[C@H](CC(=O)O)c2cccc3ccccc23)c(C(=O)N2CCC3(CCCC3)CC2)c1` [CCKB ant., Itriglumide], the “Acid Output MEAN” value on gastrin receptor (CCKB) (CCKB ant. i.d. 20 mg/kg alone, pylorus-ligated rats) is 15.24 pEq HCl. Further, the “effect of antagonist on PG-mediated gastric acid secretion” value on gastrin receptor (CCKB) (intraduodenal 20 mg/kg, PG 300 μg/kg i.g., rats) is reported as “inhibits the local effect of PG on gastric acid secretion”.

`CSCC[C@H](NC(=O)[C@H](Cc1c[nH]c2ccccc12)NC(=O)CCNC(=O)OC(C)(C)C)C(=O)N[C@@H](CC(=O)O)C(=O)N[C@@H](Cc1ccccc1)C(N)=O` [^3H-PG]: the figures for the “radioactivity in systemic circulation” value in series [1] (5 min), in series [1] (15 min) and in series [1] (30 min) were 748×10^3 CPM, 982×10^3 CPM and 832×10^3 CPM, respectively. Moreover, the “Radioactivity in systemic circulation % of Total Radioactivity/Dose” value came out at 1.43% in series [1] (5 min following oral administration), 1.67% in series [1] (15 min following oral administration) and 1.42% in series [1] (30 min following oral administration). The “share of total orally administered radioactivity that entered the systemic circulation” value in series [1] (oral 50 μg/kg (50×10^6 CPM), over 5-30 min) was “approximately 1.5%”.

As for `CSCC[C@H](NC(=O)[C@@H](N)Cc1c[nH]c2ccccc12)C(=O)N[C@@H](CC(=O)O)C(=O)N[C@@H](Cc1ccccc1)C(N)=O` [tetragastrin, Trp-Met-Asp-PheNH2], the “local stimulation of gastric acid secretion compared to PG” value with gastric acid secretion (equimolar dose, oral) is “less prominent as compared to PG”. Besides, in the series on gastric acid secretion (per os 206 μg/kg), the acid secretion entry was “elevated acid secretion” and the “gastric pH” value is “reduced gastric pH”. For the same compound, in the series with gastric acid secretion (s.c. 25 μg/kg), the acid secretion entry is given as “elevated acid secretion” and the “gastric pH” value is reported as “reduced gastric pH”.

For the origin of these results see US20060172004A1, “Oral compositions for the stimulation of gastric acid secretion comprising pentagastrin” (priority 2003, published 2006).
